# From patent US20250223306A1, “TEAD INHIBITORS AND METHODS OF USE” (Sporos BioDiscovery, Inc., priority 2022, published 2025)
# Test system: NCI-H23 cells
# Test: Proliferation and cell viability, CellTiter-Glo 2.0 (CTG) assay
# Assay type: cell-based
# Settings: 144 hrs
# [1] = Homo sapiens, NCI-H23, H23-non-responder cell line
SMILES,IC50 [1] [nM],IC50 (H23-non-responder cell line) [nM]
"C[C@H](NC(=O)c1cnc2c(C3=CC[C@@H](C(F)(F)F)CC3)cccc2c1)c1ncco1 (single isomer, unassigned) [Compound 20, N-(1-(oxazol-2-yl)ethyl)-8-(4-(trifluoromethyl)cyclohex-1-en-1-yl)quinoline-3-carboxamide]",–,> 1000
"C[C@H](NC(=O)c1cnc2c(C3=CC[C@@H](C(F)(F)F)CC3)cccc2c1)c1ncco1 (single isomer, unassigned) [Compound 19, N-(1-(oxazol-2-yl)ethyl)-8-(4-(trifluoromethyl)cyclohex-1-en-1-yl)quinoline-3-carboxamide]",> 1000,–
"C[C@H](CO)NC(=O)c1cnc2c(C3=CCC(C(F)(F)F)CC3)cccc2c1 (stereo partly drawn) [Compound 7, N—((R)-1-hydroxypropan-2-yl)-8-(4-(trifluoromethyl)cyclohex-1-en-1-yl)quinoline-3-carboxamide]",> 1000,–

# Continued, values first:
IC50 [1] [nM],IC50 (H23-non-responder cell line) [nM],SMILES
> 1000,–,"O=C(NCc1ncco1)c1cnc2c(C3=CCC(C(F)(F)F)CC3)cccc2c1 (centres unmarked) [Compound 11, N-(oxazol-2-ylmethyl)-8-(4-(trifluoromethyl)cyclohex-1-en-1-yl)quinoline-3-carboxamide]"
> 1000,–,"C[C@H](NC(=O)c1cnc2c(C3=CCC(C(F)(F)F)CC3)cccc2c1)c1ccccn1 (stereo partly drawn) [Compound 2, N—((S)-1-(pyridin-2-yl)ethyl)-8-(4-(trifluoromethyl)cyclohex-1-en-1-yl)quinoline-3-carboxamide]"
